Where two headings read alike, the source gives them in different places.
What was measured:
FGFR1 = FGFR1 (Homo sapiens (Human), UniProt P11362); assay: Kinase binding assay (kinase-tagged T7 phage, liganded affinity beads, qPCR); settings: binding constant; 0.9% DMSO
FGFR3 = FGFR3 (Homo sapiens (Human), UniProt P22607); assay: as above; settings: binding constant; 0.9% DMSO
FGFR2 [1] = biological target: T1, FGFR2 (Homo sapiens (Human), UniProt P21802); assay: biochemical
FGFR2 [2] = biological target: T1, FGFR2
[3] = system: KG-1 cells (Acute Myeloid Leukemia, FGFR1OP2-FGFR1 fusion); assay: KG-1 cancer cell line cell viability assay (CellTiter-Glo 2.0); format: cell-based; settings: Homo sapiens, 72 hours
Text: (§1) Experimental Purpose: To detect the change of intracellular ATP by Cell Titer-Glo® and to evaluate the inhibitory effect of the compounds on cancer cell lines by determining the in vitro IC50 value of the compounds.
(§2) RT112/84 and KG-1 cell lines were purchased from American Type Culture Collection (Manassas, VA). UM-UC-14 cell line was purchased from Sigma (St. Louis, MO).

[4] = system: RT112/84 cells (Bladder Cancer, FGFR3-TACC3 fusion); assay: RT112/84 cell viability assay (CellTiter-Glo 2.0); format: cell-based; settings: Homo sapiens, 72 hours
Text: Example B. RT112/84 Cell Viability Assay
RT112/84 cell line was purchased from American Type Culture Collection (Manassas, VA).
as §1, §2

[5] = system: UM-UC-14 cells (Bladder Cancer, FGFR3(S249C)); assay: UM-UC-14 cancer cell line cell viability assay (CellTiter-Glo 2.0); format: cell-based; settings: UMUC14, 72 hours
Text: as §1, §2

[6] = biological target: FGFR3-BAIAP2L1 Ba/F3 cells
Chain of FGFR3-BAIAP2L1 Ba/F3 cells (P22607 23-806 limits assumed, change not shown): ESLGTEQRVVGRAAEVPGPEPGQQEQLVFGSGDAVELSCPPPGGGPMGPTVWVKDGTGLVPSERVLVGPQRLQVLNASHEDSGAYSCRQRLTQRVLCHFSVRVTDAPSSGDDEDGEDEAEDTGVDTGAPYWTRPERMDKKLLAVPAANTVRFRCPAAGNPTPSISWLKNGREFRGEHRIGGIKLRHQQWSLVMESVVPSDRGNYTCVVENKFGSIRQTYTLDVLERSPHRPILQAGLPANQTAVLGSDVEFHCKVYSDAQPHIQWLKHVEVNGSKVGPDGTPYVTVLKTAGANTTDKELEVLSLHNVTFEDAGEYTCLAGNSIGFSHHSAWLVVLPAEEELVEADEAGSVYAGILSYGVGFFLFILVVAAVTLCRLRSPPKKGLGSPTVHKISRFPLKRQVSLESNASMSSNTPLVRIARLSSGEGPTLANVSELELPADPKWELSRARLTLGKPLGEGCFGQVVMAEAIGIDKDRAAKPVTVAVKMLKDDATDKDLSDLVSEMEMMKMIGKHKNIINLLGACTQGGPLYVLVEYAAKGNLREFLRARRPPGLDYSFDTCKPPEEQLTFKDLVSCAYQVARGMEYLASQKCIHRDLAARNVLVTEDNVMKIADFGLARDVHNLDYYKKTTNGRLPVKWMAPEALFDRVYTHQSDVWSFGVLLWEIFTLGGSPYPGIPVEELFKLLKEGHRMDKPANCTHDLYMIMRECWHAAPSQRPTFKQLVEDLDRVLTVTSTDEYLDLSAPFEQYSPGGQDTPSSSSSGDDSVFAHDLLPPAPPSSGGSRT

T1 sequence (P21802 22-821): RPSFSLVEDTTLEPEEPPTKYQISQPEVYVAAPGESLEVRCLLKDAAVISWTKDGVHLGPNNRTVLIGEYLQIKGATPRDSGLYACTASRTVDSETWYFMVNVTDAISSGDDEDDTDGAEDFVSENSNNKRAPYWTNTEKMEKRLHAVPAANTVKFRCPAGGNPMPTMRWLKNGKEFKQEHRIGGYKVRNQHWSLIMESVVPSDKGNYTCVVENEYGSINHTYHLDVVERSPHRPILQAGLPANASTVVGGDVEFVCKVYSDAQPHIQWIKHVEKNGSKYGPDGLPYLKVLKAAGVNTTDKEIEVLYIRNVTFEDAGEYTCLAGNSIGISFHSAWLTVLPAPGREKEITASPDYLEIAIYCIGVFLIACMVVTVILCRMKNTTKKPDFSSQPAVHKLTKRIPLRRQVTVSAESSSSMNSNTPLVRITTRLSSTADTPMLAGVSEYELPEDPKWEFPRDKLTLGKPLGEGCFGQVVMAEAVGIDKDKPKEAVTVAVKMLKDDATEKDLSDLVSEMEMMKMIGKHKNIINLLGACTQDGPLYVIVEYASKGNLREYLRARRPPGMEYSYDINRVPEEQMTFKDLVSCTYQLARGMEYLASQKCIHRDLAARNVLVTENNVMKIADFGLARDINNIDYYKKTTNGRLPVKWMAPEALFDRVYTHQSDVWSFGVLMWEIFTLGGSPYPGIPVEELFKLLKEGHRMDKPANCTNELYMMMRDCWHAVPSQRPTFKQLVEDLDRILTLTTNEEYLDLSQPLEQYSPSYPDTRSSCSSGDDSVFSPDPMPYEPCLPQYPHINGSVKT
Chain of FGFR1 (P11362 22-822): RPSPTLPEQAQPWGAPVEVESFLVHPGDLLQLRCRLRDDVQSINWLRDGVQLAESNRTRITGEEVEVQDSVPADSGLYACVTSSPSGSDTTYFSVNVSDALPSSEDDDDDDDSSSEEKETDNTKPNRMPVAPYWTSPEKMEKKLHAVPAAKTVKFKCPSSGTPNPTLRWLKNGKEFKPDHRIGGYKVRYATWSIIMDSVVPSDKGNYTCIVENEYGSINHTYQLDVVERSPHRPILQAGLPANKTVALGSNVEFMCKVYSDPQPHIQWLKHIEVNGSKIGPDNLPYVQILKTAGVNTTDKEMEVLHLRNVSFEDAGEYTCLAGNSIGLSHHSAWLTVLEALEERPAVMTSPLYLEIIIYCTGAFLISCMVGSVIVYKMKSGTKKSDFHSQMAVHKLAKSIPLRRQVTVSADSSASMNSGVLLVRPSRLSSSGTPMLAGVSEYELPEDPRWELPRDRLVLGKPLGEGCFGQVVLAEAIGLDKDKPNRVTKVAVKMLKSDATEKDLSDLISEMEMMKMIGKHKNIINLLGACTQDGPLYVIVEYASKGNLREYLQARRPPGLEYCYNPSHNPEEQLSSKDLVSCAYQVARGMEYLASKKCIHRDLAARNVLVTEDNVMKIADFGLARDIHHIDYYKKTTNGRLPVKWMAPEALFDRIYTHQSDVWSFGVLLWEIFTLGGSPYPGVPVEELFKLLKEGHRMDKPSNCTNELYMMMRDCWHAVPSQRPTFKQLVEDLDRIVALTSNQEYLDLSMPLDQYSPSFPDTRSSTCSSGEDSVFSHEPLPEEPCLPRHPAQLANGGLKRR
Chain of FGFR3 (P22607 23-806): as the sequence (P22607 23-806 limits assumed, change not shown) above

IC50 [3] [nM]	IC50 [4] [nM]	IC50 [5] [nM]	Structure (SMILES)	other results
			CC(Oc1ccc2[nH]nc(-c3cccc(N=S(C)(C)=O)c3)c2c1)c1c(Cl)cncc1Cl (stereo not shown) [Example 1, [3-[5-[1-(3,5-dichloro-4-pyridyl)ethoxy]-1H-indazol-3-yl]phenyl]imino-dimethyl-oxo-λ^6-sulfane]	Kd (FGFR1): 770 nM; Kd (FGFR3): 76 nM; Kd (FGFR2 [1]): 550 nM
			CC(Oc1ccc2[nH]nc(-c3cccc(S(C)(=N)=O)c3)c2c1)c1c(Cl)cncc1Cl (stereo not shown) [Example 2, (3-(5-(1-(3,5-Dichloropyridin-4-yl)ethoxy)-1H-indazol-3-yl)phenyl)(imino) (methyl)-λ^6-6-sulfanone]	Kd (FGFR1): 1200 nM; Kd (FGFR3): 120 nM; Kd (FGFR2 [2]): 400 nM
0.4	20		C[C@@H](Oc1ccc2[nH]nc(/C=C/c3ccc(N=S(C)(C)=O)nc3)c2c1)c1c(Cl)cncc1Cl [Example 3]	
			CC(Oc1ccc2[nH]nc(C(=O)Nc3ccc(S(C)(=N)=O)nc3)c2c1)c1c(Cl)cncc1Cl (stereo not shown) [Example 6, 5-(1-(3,5-Dichloropyridin-4-yl)ethoxy)-N-(6-(S-methylsulfonimidoyl)pyridine-3-yl)-1H-indazole-3-carboxamide]	Kd (FGFR1): 260 nM; Kd (FGFR3): 47 nM; Kd (FGFR2 [2]): 120 nM
45	4.3	5.9	C[C@@H](Oc1ccc2[nH]nc(-c3ccc(N4CCS(=N)(=O)CC4)nc3)c2c1)c1c(Cl)cncc1Cl [Example 12, (R)-4-(5-(5-(1-(3,5-Dichloropyridin-4-yl)ethoxy)-1H-indazol-3-yl)pyridin-2-yl)-1-imino-1λ^6-thiomorpholine 1-oxide]	
	16		C[C@@H](Oc1ccc2[nH]nc(-c3ccc(N4CCS(=N)(=O)CC4)cc3)c2c1)c1c(Cl)cncc1Cl [Example 13, (R)-4-(4-(5-(1-(3,5-Dichloropyridin-4-yl)ethoxy)-1H-indazol-3-yl)phenyl)-1-imino-1λ^6-thiomorpholine 1-oxide]	
	75		C[C@H](Oc1ccc2[nH]nc(-c3ccc(N4CCS(=N)(=O)CC4)cc3)c2c1)c1c(Cl)cncc1Cl [Example 14, (S)-4-(4-(5-(1-(3,5-Dichloropyridin-4-yl)ethoxy)-1H-indazol-3-yl)phenyl)-1-imino-1λ^6-thiomorpholine 1-oxide]	
	39		C[C@@H](Oc1ccc2[nH]nc(NC(=O)c3ccc(N=S(C)(C)=O)nc3)c2c1)c1c(Cl)cncc1Cl [Example 19, (R)—N-(5-(1-(3,5-Dichloropyridin-4-yl)ethoxy)-1H-indazol-3-yl)-6-((dimethyl(oxo)-λ^6-sulfaneylidene)amino)nicotinamide]	
103	11	19	C[C@@H](Oc1ccc2[nH]nc(-c3ccc(N=S(C)(C)=O)nc3)c2c1)c1c(Cl)cncc1Cl [Example 21, (R)-((5-(5-(1-(3,5-Dichloropyridin-4-yl)ethoxy)-1H-indazol-3-yl)pyridin-2-yl)imino)dimethyl-λ^6-sulfanone]	
169	8.4	12	CN=S1(=O)CCN(c2ccc(-c3n[nH]c4ccc(O[C@H](C)c5c(Cl)cncc5Cl)cc34)cn2)CC1 [Example 24, 4-[5-[5-[(1R)-1-(3,5-dichloro-4-pyridyl)ethoxy]-1H-indazol-3-yl]-2-pyridyl]-1-methylimino-1,4-thiazinane 1-oxide]	
81	14	19	C[C@@H](Oc1ccc2[nH]nc(-c3cnc(N=S(C)(C)=O)c(F)c3)c2c1)c1c(Cl)cncc1Cl [Example 25, [5-[5-[(1R)-1-(3,5-dichloro-4-pyridyl)ethoxy]-1H-indazol-3-yl]-3-fluoro-2-pyridyl]imino-dimethyl-oxo-λ^6-sulfane]	
123	22	29	C[C@@H](Oc1ccc2[nH]nc(-c3cnc(N=S(C)(C)=O)nc3)c2c1)c1c(Cl)cncc1Cl [Example 26, [5-[5-[(1R)-1-(3,5-dichloro-4-pyridyl)ethoxy]-1H-indazol-3-yl]pyrimidin-2-yl]imino-dimethyl-oxo-λ^6-sulfane]	IC50 [6]: 18 nM
	28	44	C[C@@H](Oc1ccc2[nH]nc(-c3ccc(S(C)(=N)=O)nc3)c2c1)c1c(Cl)cncc1Cl (stereo partly drawn) [Example 28, [5-[5-[(1R)-1-(3,5-dichloro-4-pyridyl)ethoxy]-1H-indazol-3-yl]-2-pyridyl]-imino-methyl-oxo-λ^6-sulfane]	
	38	47	Cc1ncc(Cl)c([C@@H](C)Oc2ccc3[nH]nc(-c4ccc(N=S(C)(C)=O)nc4)c3c2)c1Cl [Example 30, [5-[5-[(1R)-1-(3,5-dichloro-2-methyl-4-pyridyl)ethoxy]-1H-indazol-3-yl]-2-pyridyl]imino-dimethyl-oxo-λ^6-sulfane]	
			C[C@@H](Oc1ccc2[nH]nc(-c3ccc(N=S4(=O)CCCC4)nc3)c2c1)c1c(Cl)cncc1Cl [Example 32, 1-[[5-[5-[(1R)-1-(3,5-Dichloro-4-pyridyl)ethoxy]-1H-indazol-3-yl]-2-pyridyl]imino]thiolane 1-oxide]	Kd (FGFR1): 14 nM; Kd (FGFR3): 1.9 nM; Kd (FGFR2 [1]): 15 nM
